Earlier results on two compounds are cited in patent US20060165637A1, “Topical agent containing phytanic acid or a derivative thereof” (priority 2003, published 2006).

One data set relates to RXR. Conditions: relative to retinoic acid.
For data set [1] the following is noted: applied topically to the skin.

Take `CC(C)CCCC(C)CCCC(C)CCCC(C)CC(=O)O` (centres unmarked) [Phytanic acid, 3,7,11,15-tetramethylhexadecanoic acid]: the “RXR binding affinity, times weaker than that of retinoic acid” value in the data set with RXR is reported as 200 times. Take `C/C(=C\CO)CCC[C@H](C)CCC[C@H](C)CCCC(C)C` [phytol]: the “conversion into phytanic acid” value in data set [1] was “does not occur”.
